Here are results for nine compounds from patent US20240058460A1, “METHODS AND COMPOUNDS FOR MODULATING HUNTINGTON'S DISEASE” (Design Therapeutics, Inc., priority 2022, published 2024).

Common to all, as to type: cell-based
The subject of experiment [1] is human HTT T allele (SNP rs362331C/T) mRNA in GM04022 fibroblasts. The experiment is described as follows: HTT mRNA, allele-specific RT-PCR in GM04022 fibroblasts, T allele. As to conditions: for IC50: Homo sapiens, Fibroblast, 48 hr, T allele HTT mRNA normalized to GAPDH, relative to vehicle; for GM04022 Emin 48 hr T Allele: lowest % HTT observed at 0.5 nM to 1000 nM compound. The protocol: (§1) Molecular Biology Toolkit: • qPCR primer probe sets: • RNA input normalization was assessed utilizing human glyceraldehyde 3-phosphate dehydrogenase (hGAPDH) TaqMan assay (ThermoFisher cat #4351370) or Human Cyclophillin ([…]) TaqMan assay (ThermoFisher cat #4351372) • Total HTT detection was assessed utilizing human Htt TaqMan assay (ThermoFisher cat #4331182) • Allele-specific detection of human HTT expression in HD cells containing the SNP rs362331C/T (Exon 50): for each assay, allele-specific probes to detect the SNP variant contained locked nucleic acid bases to improve allele discrimination, as compared to unmodified DNA probes. • 362331-F (331 forward primer) • 362331-R (331 reverse primer) • 362331-C probe: TCC CTC ATC+C+AC TGT GT • 362331-T probe: CTC+A+T+C+T+A+C TGT GT • qPCR was performed using Agpath ID one-step reverse transcriptase polymerase chain reaction (RT-PCR) reagent
(§2) Screening of HD molecules methods: GM09197 and/or GM04022 fibroblasts were cultured in T175 flasks incubated at 37° C. and 5% CO2. Once confluency was reached, the media was removed, the cells were washed with 1×PBS, and cells were dissociated using TrypLE™ Express Enzyme. Media was added to the enzyme and collected into a 15-mL conical tube and centrifuged at 500×g for 5 minutes to pellet the cells. Media and enzyme were aspirated using a serological pipette. Cells were resuspended in fresh media and counted using a Countess 3 Automated Cell Counter. Cells were plated at a density of 15,000 cells/well in a tissue culture-treated polystyrene 96-well dish and incubated at 37° C. and 5% CO2 overnight. The next day, media was removed using an 8-channel aspirator. 200 μL media/well are added back into the plate. The molecules are formulated to 1 mM and are dispensed using a Multidrop™ Pico 8 Digital Dispenser. After a 48-hour incubation with compounds, media was removed from plates, cells were washed with 1×PBS, and cells were lysed in 40 μL per well guanidinium thiocyanate buffer. RNA was isolated and purified in 382-well glass fiber column plates using chaotropic salts. Human mtHTT, wtHTT, and GAPDH mRNA were measured via RT-PCR using the ThermoFisher QuantStudio™ 7 Flex System in 384-well format. Results of HTT levels were normalized to GAPDH mRNA levels. Normalized HTT mRNA levels were expressed relative to vehicle-treated samples to assess fold change after molecule treatment.
(§3) Emin for each compound is the lowest % HTT concentration observed within a compound concentration of 0.5 nM to 1000 nM.

For experiment [2], the system named is human HTT T allele (SNP rs362331C/T) mRNA in GM09197 fibroblasts. The experiment is described as follows: HTT mRNA, allele-specific RT-PCR in GM09197 fibroblasts, T allele. The following applies: for IC50: Homo sapiens, Fibroblast, 48 hr, T allele HTT mRNA normalized to GAPDH, relative to vehicle; for Gm09197 Emin 48 hr T Allele (%): lowest % HTT observed at 0.5 nM to 1000 nM compound. The method, then:
as §1, §2, §3

For experiment [3], the system named is human HTT C allele (SNP rs362331C/T) mRNA in GM04022 fibroblasts. Nature of the experiment: HTT mRNA, allele-specific RT-PCR in GM04022 fibroblasts, C allele. The following applies: for GM 04022Emin 48 hr C Allele: lowest % HTT observed at 0.5 nM to 1000 nM compound. The protocol:
as §1
as §2, with “After a 48-hour incubation with compounds, media was removed from plates, cells were washed with 1×PBS, and cells were lysed in 40 μL per well guanidinium thiocyanate buffer. RNA was isolated and purified in 382-well glass fiber column plates using chaotropic salts.” left out, “Results of HTT levels were normalized to GAPDH mRNA levels. Normalized HTT mRNA levels were expressed relative to vehicle-treated samples to assess fold change after molecule treatment.” left out

For experiment [4], the system named is human HTT C allele (SNP rs362331C/T) mRNA in GM09197 fibroblasts. Nature of the experiment: HTT mRNA, allele-specific RT-PCR in GM09197 fibroblasts, C allele. As to conditions: for GM 09197 E min 48 Hr C Allele (%): lowest % HTT observed at 0.5 nM to 1000 nM compound; for IC50: Homo sapiens, Fibroblast, 48 hr, C allele HTT mRNA normalized to GAPDH, relative to vehicle. The protocol: as §1, §2, §3

The term IC50 denotes the concentration needed to halve the response being measured. Read a low IC50 as greater potency.

For the compound `Cn1cc(NC(=O)c2nc(NC(=O)CCNC(=O)c3cc(NC(=O)c4nccn4C)cn3C)cn2C)cc1C(=O)NCCCC(=O)Nc1cn(C)c(C(=O)NCCC(=O)Nc2cc(C(=O)Nc3cn(C)c(C(=O)NCCC(=O)NCCOCCOCCOCCOCCOCCOCCOCCOCCOCCOCCOCCOCCOCCOCCOCCOc4ccc(NC(=O)c5cc6c(-c7cc(S(C)(=O)=O)ccc7Oc7ccc(F)cc7F)cn(C)c(=O)c6[nH]5)cc4)n3)n(C)c2)n1` [Compound A-2], in experiment [1], the IC50 was above 1000 nM and the “GM04022 Emin 48 hr T Allele” value is recorded as “C (C<80%)”. In experiment [2], the IC50 stood at 32 nM and the “Gm09197 Emin 48 hr T Allele (%)” value was “C (C<80%)”. Moreover, the “GM 04022Emin 48 hr C Allele” value in experiment [3] is “A (A>90%)”. In addition, the “GM 09197 E min 48 Hr C Allele (%)” value in experiment [4] was “A (A>90%)”.

For `CC(=O)N1c2ccc(-c3ccn(-c4ccc(OCCOCCOCCOCCOCCOCCOCCOCCOCCOCCOCCOCCOCCOCCOCCOCCNC(=O)CCNC(=O)c5nc(NC(=O)c6cc(NC(=O)CCNC(=O)c7nc(NC(=O)CCCNC(=O)c8cc(NC(=O)c9nc(NC(=O)CCNC(=O)c%10cc(NC(=O)c%11nccn%11C)cn%10C)cn9C)cn8C)cn7C)cn6C)cn5C)cc4)n3)cc2[C@H](Nc2ccc(C#N)cc2)C[C@@H]1C` [Compound A-58], the IC50 in experiment [2] and in experiment [4] was above 1000 nM each time.

Regarding `CC(=O)N1c2ccc(-c3ccn(-c4ccc(OCCOCCOCCOCCOCCOCCOCCOCCOCCNC(=O)CCNC(=O)c5nc(NC(=O)c6cc(NC(=O)CCNC(=O)c7nc(NC(=O)CCCNC(=O)c8cc(NC(=O)c9nc(NC(=O)CCNC(=O)c%10cc(NC(=O)c%11nccn%11C)cn%10C)cn9C)cn8C)cn7C)cn6C)cn5C)cc4)n3)cc2[C@H](Nc2ccc(C#N)cc2)C[C@@H]1C` [Compound A-59], the IC50 in experiment [2] and in experiment [4] was above 1000 nM each time.

Regarding `CCNS(=O)(=O)c1ccc(Oc2ccc(OCCOCCOCCOCCOCCOCCOCCOCCOCCOCCOCCOCCOCCOCCOCCOCCNC(=O)CCNC(=O)c3nc(NC(=O)c4cc(NC(=O)CCNC(=O)c5nc(NC(=O)CCCNC(=O)c6cc(NC(=O)c7nc(NC(=O)CCNC(=O)c8cc(NC(=O)c9nccn9C)cn8C)cn7C)cn6C)cn5C)cn4C)cn3C)cc2F)c(-c2cn(C)c(=O)c3[nH]ccc23)c1` [Compound A-68], in experiment [2], inhibition was half-maximal at 17 nM (IC50) and the “Gm09197 Emin 48 hr T Allele (%)” value is on record as “C (C<80%)”. Moreover, in experiment [4], the “GM 09197 E min 48 Hr C Allele (%)” value is “A (A>90%)”.

Turning to `CCS(=O)(=O)Nc1ccc(Oc2ccc(F)cc2F)c(-c2cn(C)c(=O)c3[nH]c(C(=O)Nc4ccc(OCCOCCOCCOCCOCCOCCOCCOCCOCCOCCOCCOCCOCCOCCOCCOCCNC(=O)CCNC(=O)c5nc(NC(=O)c6cc(NC(=O)CCNC(=O)c7nc(NC(=O)OCCNC(=O)c8cc(NC(=O)c9nc(NC(=O)CCNC(=O)c%10cc(NC(=O)c%11nccn%11C)cn%10C)cn9C)cn8C)cn7C)cn6C)cn5C)cc4)cc23)c1` [Compound A-72], the IC50 in experiment [2] and in experiment [4] was above 1000 nM in each case. Besides, the “Gm09197 Emin 48 hr T Allele (%)” value in experiment [2] is listed as “A (A>90%)”.

As to `Cc1sc2c(c1C)C(c1ccc(Cl)cc1)=N[C@@H](CC(=O)Nc1ccc(OCCOCCOCCOCCOCCOCCOCCOCCOCCOCCOCCOCCOCCOCCOCCOCCNC(=O)CCNC(=O)c3nc(NC(=O)c4cc(NC(=O)CCNC(=O)c5nc(NC(=O)OCCNC(=O)c6cc(NC(=O)c7nc(NC(=O)CCNC(=O)c8cc(NC(=O)c9nccn9C)cn8C)cn7C)cn6C)cn5C)cn4C)cn3C)cc1)c1nnc(C)n1-2` [Compound A-73], in experiment [2], the IC50 is above 1000 nM and the “Gm09197 Emin 48 hr T Allele (%)” value was “A (A>90%)”. Also, in experiment [4], the “GM 09197 E min 48 Hr C Allele (%)” value is on record as “A (A>90%)” and the IC50 was above 1000 nM.

Turning to `CCS(=O)(=O)Nc1ccc(Oc2ccc(F)cc2F)c(-c2cn(C)c(=O)c3[nH]c(C(=O)Nc4ccc(OCCOCCOCCOCCOCCOCCOCCOCCOCCOCCOCCOCCOCCOCCOCCOCCNC(=O)CCNC(=O)c5nc(NC(=O)c6cc(NC(=O)CCNC(=O)c7nc(NC(=O)NCCNC(=O)c8cc(NC(=O)c9nc(NC(=O)CCNC(=O)c%10cc(NC(=O)c%11nccn%11C)cn%10C)cn9C)cn8C)cn7C)cn6C)cn5C)cc4)cc23)c1` [Compound A-74], the IC50 in experiment [2] and in experiment [4] was above 1000 nM throughout. Besides, the “Gm09197 Emin 48 hr T Allele (%)” value in experiment [2] is given as “A (A>90%)”.

As to `Cc1sc2c(c1C)C(c1ccc(Cl)cc1)=N[C@@H](CC(=O)Nc1ccc(OCCOCCOCCOCCOCCOCCOCCOCCOCCOCCOCCOCCOCCOCCOCCOCCNC(=O)CCNC(=O)c3nc(NC(=O)c4cc(NC(=O)CCNC(=O)c5nc(NC(=O)NCCNC(=O)c6cc(NC(=O)c7nc(NC(=O)CCNC(=O)c8cc(NC(=O)c9nccn9C)cn8C)cn7C)cn6C)cn5C)cn4C)cn3C)cc1)c1nnc(C)n1-2` [Compound A-75], in experiment [2], the IC50 was above 1000 nM and the “Gm09197 Emin 48 hr T Allele (%)” value is listed as “A (A>90%)”. In experiment [4], the “GM 09197 E min 48 Hr C Allele (%)” value is recorded as “A (A>90%)” and the IC50 is above 1000 nM.

On to `C/C=C/Cn1cc(-c2cc(OC)c(C(=O)N3CCN(CCOCCOCCOCCOCCOCCOCCOCCOCCOCCOCCOCCOCCOCCOCCOCCNC(=O)CCNC(=O)c4nc(NC(=O)c5cc(NC(=O)CCNC(=O)c6nc(NC(=O)CCCNC(=O)c7cc(NC(=O)c8nc(NC(=O)CCNC(=O)c9cc(NC(=O)c%10nccn%10C)cn9C)cn8C)cn7C)cn6C)cn5C)cn4C)CC3)cc2OC)c2cc[nH]c2c1=O` [Compound A-76], for which, in experiment [1], the 50% inhibitory concentration (IC50) was above 1000 nM and the “GM04022 Emin 48 hr T Allele” value is given as “A (A>90%)”. Further, in experiment [2], the IC50 was above 1000 nM and the “Gm09197 Emin 48 hr T Allele (%)” value was “A (A>90%)”. Besides, the “GM 04022Emin 48 hr C Allele” value in experiment [3] is listed as “A (A>90%)”. In addition, the IC50 in experiment [3] (Homo sapiens, Fibroblast, 48 hr, C allele HTT mRNA normalized to GAPDH, relative to vehicle) was above 1000 nM. In experiment [4], the “GM 09197 E min 48 Hr C Allele (%)” value is “A (A>90%)” and the half-inhibitory concentration (IC50) is above 1000 nM.
